The assay concerns HIV-1 strain 952. The experiment in a line: HIV-1 strain 952 infection of peripheral blood monocytes (p24 ELISA and syncytia titer on MT-2 cells). Format: cell-based. From the text: FIG. 4: ELISA of supernatant p24 antigen of HIV-1 strain 952 (solid line; solid symbols) and HIV-1 titer based on number of syncytia observed by light microscopy on day 5 by titration of the day 4 supernatants in previously uninfected MT-2 cells (dashed line; open symbols) as a measure of mature virus production after 4 d with HIV strain 952 (City Laboratory, Hamburg) and mononuclear cells in peripheral blood (PBMCs)=peripheral blood monocytes prepared from healthy volunteers, as described herein below. Assays were in triplicate ±standard deviations.
As non-permanent cells, PBM cells were derived from freshly prepared pooled buffy coats from healthy blood donors. The PBM cells were isolated by Ficoll density gradient centrifugation and cultivated (stimulated with phytohemagglutinin) for 48 h in RPMI 1640 medium supplemented with 20% FBS and L-glutamine. PBMC tropic laboratory isolate No. 9.5 was used in the PBMC assays.
Virus replication was determined as follows. Antiviral activity was assessed at day four or five after infection by scoring p24 antigen production by a commercial kit (DuPont) and by titration of the supernatants. […] After 5 d, all wells were scored for SI formation by light microscopy. The highest dilution (titer) displaying at least one SI were scored as positive, and the highest titers were averaged. […]
Background: In an ELISA, binding on a coated surface is turned into a signal by an enzyme label.

Each structure is given as a SMILES string. pEC50: −log10 of the molar value.

For the molecule `O=C(O[C@@H]1Cc2c(O)cc(O)cc2O[C@@H]1c1cc(O)c(O)c(O)c1)c1cc(O)c(O)c(O)c1` [EGCg, (−)-epigallocatechin-3-gallate], the “infection (production of infective particles based on p24 assay)” value (10 μM, PBMC, strain 952) is listed as “prevented”. For the same molecule, the negative logarithm of the EC50 (pEC50) (PBMC supernatants, read-out: EC50 for inhibition of production of infective virus (syncytia formation after 5 days on MT-2 cells)) is > 6.00.

The term pEC50 denotes the negative decadic logarithm of the EC50, by convention in mol/L.

The record behind these values is patent US20070077316A1, “Compositions and methods for treating and preventing virus infections” (priority 2005, published 2007).
